Legend:
[1] = biological target: T1, CYC domain of XC_0250 (CYCHis6) (Xanthomonas campestris, UniProt Q8PDU5); assay: guanylyl cyclase assay, reverse-phase HPLC and mass spectrometry; type: biochemical; conditions: 0.5 mM GTP, 10 mM MnCl2, pH 8.0, 25°C
T1 construct: gene XCC0240; single band of 21 kDa

full-length XC_0249 = biological target: T2, full-length XC_0249 (Xanthomonas campestris, UniProt Q8PDU6); assay: diguanylate cyclase assay, HPLC and mass spectrometry; type: biochemical; conditions: 150 μM GTP, 10 mM MgCl2, pH 7.6, 60 min
T2 construct: gene XCC0239; full-length purified protein; cNMP domain plus GGDEF domain

[2] = biological target: cNMP domain of XC_0249 (Xanthomonas campestris pv. campestris (Xcc) strain 8004); assay: crystal structure; XC_0249 cNMP domain with cyclic GMP bound, resolution 2.2 Å

T1 sequence (Q8PDU5 entry or part of it): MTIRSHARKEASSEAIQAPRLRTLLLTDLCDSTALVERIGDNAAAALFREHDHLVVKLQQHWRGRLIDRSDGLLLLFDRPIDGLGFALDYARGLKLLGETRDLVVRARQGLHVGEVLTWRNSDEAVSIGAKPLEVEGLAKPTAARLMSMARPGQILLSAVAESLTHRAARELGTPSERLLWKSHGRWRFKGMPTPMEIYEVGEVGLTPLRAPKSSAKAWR
T2 sequence (Q8PDU6 entry or part of it): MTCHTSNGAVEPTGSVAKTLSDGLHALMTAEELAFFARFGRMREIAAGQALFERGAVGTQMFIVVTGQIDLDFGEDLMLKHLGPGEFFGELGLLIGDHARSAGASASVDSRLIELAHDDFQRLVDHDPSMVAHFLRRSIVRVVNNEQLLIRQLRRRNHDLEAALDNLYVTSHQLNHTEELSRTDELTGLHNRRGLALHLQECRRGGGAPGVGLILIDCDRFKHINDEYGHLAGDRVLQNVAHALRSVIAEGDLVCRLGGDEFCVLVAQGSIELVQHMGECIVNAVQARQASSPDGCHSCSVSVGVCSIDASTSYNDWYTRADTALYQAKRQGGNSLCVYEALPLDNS

Row | Compound | guanylyl cyclase assay, reverse-phase HPLC and mass spectrometry [1] | other results
1 | Nc1nc2c(ncn2[C@@H]2O[C@H](COP(=O)(O)OP(=O)(O)OP(=O)(O)O)[C@@H](O)[C@H]2O)c(=O)[nH]1 [GTP] | This protein had guanylate cyclase activity, converting GTP to cyclic GMP | 
2 | Nc1nc2c(ncn2[C@@H]2O[C@@H]3COP(=O)(O)O[C@H]3[C@H]2O)c(=O)[nH]1 [cyclic GMP] | This protein had guanylate cyclase activity, converting GTP to cyclic GMP | 
3 | Nc1nc2c(ncn2[C@@H]2O[C@@H]3COP(=O)(O)O[C@H]4[C@@H](O)[C@H](n5cnc6c(=O)[nH]c(N)nc65)O[C@@H]4COP(=O)(O)O[C@H]3[C@H]2O)c(=O)[nH]1 [cyclic di-GMP] |  | diguanylate cyclase assay, HPLC and mass spectrometry (full-length XC_0249): The identity of cyclic di-GMP as a product was confirmed by mass spectrometry
4 | cNMP domain of XC_0249 (domain or fragment) |  | stoichiometry N [2]: 2

Source: publication PMC3770947, “A cyclic GMP-dependent signalling pathway regulates bacterial phytopathogenesis” (The EMBO Journal, 2013)
